Reference: US9636336B2, “Aminoester derivatives” (CHIESI FARMACEUTICI S.p.A., priority 2015, dated 2017)
Where two headings read alike, the source gives them in different places.

Legend:
[1] = biological target: Human M3 receptor membranes (Homo sapiens (Human), UniProt P20309); experiment: M3 Receptor radioligand binding assay; conditions: M3 Receptor radioligand binding assay; for Ki: Ki from IC50 by Cheng and Prusoff
Protocol: M3 Receptor Radioligand Binding Assay:
The assay is carried out in 96-well polypropylene plates in a volume of 250 μl. […] The final assay concentration of DMSO is 0.5% (v/v). The plates are sealed and incubated for 2 h at room temperature on an orbital shaker (slow speed). Membranes are harvested onto 96-well unifilter GF/C filter plates pre-treated with 0.5% polyethyleneimine (v/v), using a filter manifold, washed four times with 200 μl of assay buffer. The plates are dried before addition of 50 μl of microscint-0, sealed then read in a Trilux Microbeta scintillation counter. IC50 values are determined from competition curves using a non-linear curve fitting program. Ki values are calculated from IC50 values by the Cheng and Prusoff equation.

[2] = tested on: Cch-evoked bronchoconstriction in rats; experiment: Bronchospasm, percentage of inhibition (Cch-induced bronchoconstriction, duration of action); assay type: in vivo, Male CD Sprague Dawley rats; conditions: rat; for sub-maximal inhibition Dose: Dose producing about 80% (sub-maximal) inhibition of the bronchospasm after 1 h, intratracheal; for inhibition at 16 h: inhibition of bronchospasm 16 h after intratracheal administration of the sub-maximal inhibition dose
Protocol: Protocol of Bronchospasm—Percentage of Inhibition
Male CD Sprague Dawley rats (220-250 g) were purchased from Charles River Laboratories Italy (Calco, Lecco). Prior to use animals were acclimated for at least 5 days to the local vivarium conditions (room temperature: 20-24° C.; relative humidity: 40-70%), having free access to standard rat chow and softened tap water. All the procedures were performed in animal operating rooms according to ethical guidelines for the conduct of animal research (D. L.vo 116/92).
Treatment with Test Compounds
Animals were anaesthetised with Urethane (1.2 g/kg, i.p.) and a laryngoscope was moved forward into the mouth to visualize the trachea and guide the insertion of the tip of a custom made small diameter cannula directly into the trachea and located 1-2 mm above the bifurcation. Test compounds were dissolved in 100% dimethyl sulphoxide (DMSO) at 10^−2 M. The target concentration was obtained by dilution of the DMSO stock in saline. Test compounds were instilled locally into the trachea in a volume of 125 μl.
In order to assess the residual inhibitory activity of test compounds at 1-16 hours after their administration, rats were surgically prepared. In order to assess the Cch-induced bronchoconstriction in rats, the infusion of physiological solution was stopped and the bronchospastic agent injected into the jugular vein using the same cannula. Soon after washing the cannula with saline to ensure the complete administration of the bronchoconstrictor agent, the saline infusion was started again. Body temperature was kept constant at 37° C. by a heated blanket.
The trachea was cannulated and the lungs were ventilated artificially with a small animal constant volume ventilator (rodent ventilator mod. 7025, Ugo Basile, Comerio, Varese, Italy) at a frequency of 80 strokes/min and at a tidal volume of 2.5 ml/kg. To avoid spontaneous breathing, the animals were injected intravenously (i.v.) with pancuronium bromide (2 mg/kg). Bronchoconstriction was induced by the i.v. injection of Cch 50 μg/kg. In control experiments, repeated injections of this dose produced reproducible short-lasting (1-2 min duration) bronchospasms. Bronchoconstriction, quantified as a reduction of tidal volume, was evaluated according to the method described by Konzett & Roessler in Konzett H. and Roessler R., Versuchanornungzu untersuchungen ande bronchialmuskulatur. Arch. Exp. Path. Pharmak.; 195:71-74 (1940), which is incorporated herein by reference in its entirety.
Systemic blood pressure and changes in airway resistance were monitored with a digital pressure transducer connected to a bridge amplifier (PowerLab; Ugo Basile, Italy) and recorded using Chart 5 software (Ugo Basile, Italy).
After stabilization of artificial breathing and blood pressure, animals were injected (i.v.) with Cch every 3 min, until 3 stable and reproducible basal responses were obtained. […] The effect of test compounds was expressed as % inhibition of Cch-evoked bronchoconstriction in time-matched, vehicle-treated, animals (controls).

[3] = tested on: COPD patients; conditions: cited from earlier work
[4] = tested on: smoking model of COPD in mice; conditions: cited from earlier work
[5] = patients with severe disease, frequent exacerbations and mucus hypersecretion

Human M3 receptor membranes, sequence (P20309 whole entry): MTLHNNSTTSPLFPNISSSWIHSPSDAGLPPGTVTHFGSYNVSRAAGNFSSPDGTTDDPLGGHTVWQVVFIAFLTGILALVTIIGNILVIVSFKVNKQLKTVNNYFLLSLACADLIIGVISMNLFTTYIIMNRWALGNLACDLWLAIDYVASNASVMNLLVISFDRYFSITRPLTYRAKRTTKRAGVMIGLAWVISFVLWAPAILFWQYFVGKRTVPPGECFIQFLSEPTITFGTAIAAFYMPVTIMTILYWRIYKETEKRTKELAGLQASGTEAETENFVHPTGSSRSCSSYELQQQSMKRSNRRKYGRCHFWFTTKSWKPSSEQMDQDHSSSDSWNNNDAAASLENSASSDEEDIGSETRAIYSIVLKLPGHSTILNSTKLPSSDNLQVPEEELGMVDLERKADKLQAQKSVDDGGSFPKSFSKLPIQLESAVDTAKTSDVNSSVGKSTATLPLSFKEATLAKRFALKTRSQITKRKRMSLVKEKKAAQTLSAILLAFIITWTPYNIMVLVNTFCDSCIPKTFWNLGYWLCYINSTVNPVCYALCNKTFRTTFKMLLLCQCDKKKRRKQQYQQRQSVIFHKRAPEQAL

## COc1ccc([C@H](Cc2c(Cl)c[n+]([O-])cc2Cl)OC(=O)c2ccc(CNC(C(=O)O[C@H]3CCN(C)C3)c3ccccc3)s2)cc1OC (single isomer, unassigned) [Example 78c, reference compound]
[1]
  Ki: 0.54 nM
[1]; read-out: M3 IC50
  IC50: 1.08 nM
[2]
  sub-maximal inhibition Dose: 100 nmol/kg
  inhibition at 16 h: 26%

## COc1ccc([C@H](Cc2c(Cl)c[n+]([O-])cc2Cl)OC(=O)c2ccc(CNC(C(=O)OC3CCN(C)CC3)c3ccccc3)s2)cc1OC (single isomer, unassigned) [Example 87c, reference compound]
[1]
  Ki: 0.3 nM
[1]; read-out: M3 IC50
  IC50: 0.5 nM
[2]
  sub-maximal inhibition Dose: 30 nmol/kg
  inhibition at 16 h: <10%

## COc1ccc([C@H](Cc2c(Cl)c[n+]([O-])cc2Cl)OC(=O)c2ccc(CNC(CO)(C(=O)OC3CCN(C)CC3)c3ccccc3)s2)cc1OC (single isomer, unassigned) [Example 105c, reference compound]
[1]
  Ki: 0.23 nM
[1]; read-out: M3 IC50
  IC50: 0.45 nM
[2]
  sub-maximal inhibition Dose: 10 nmol/kg
  inhibition at 16 h: 35%

## COc1ccc([C@H](Cc2c(Cl)c[n+]([O-])cc2Cl)OC(=O)c2ccc(CNC(C(=O)OC[C@H]3CCN(C)C3)c3ccccc3)s2)cc1OC (stereo partly drawn) [Example 78, [(1S)-2-(3,5-dichloro-1-oxido-pyridin-1-ium-4-yl)-1-(3,4-dimethoxyphenyl)ethyl] 5-[[[2-[[(3S)-1-methylpyrrolidin-3-yl]methoxy]-2-oxo-1-phenyl-ethyl]amino]methyl]thiophene-2-carboxylate]
[1]; read-out: M3 IC50 activity
  IC50: 1 to 10 nM
[2]
  sub-maximal inhibition Dose: 30 nmol/kg
  inhibition at 16 h: 51%

## COc1ccc([C@H](Cc2c(Cl)c[n+]([O-])cc2Cl)OC(=O)c2ccc(CNC(C(=O)OCC3CCN(C)CC3)c3ccccc3)s2)cc1OC (stereo partly drawn) [Example 87, [(1S)-2-(3,5-dichloro-1-oxido-pyridin-1-ium-4-yl)-1-(3,4-dimethoxyphenyl)ethyl] 5-[[[2-[(1-methyl-4-piperidyl)methoxy]-2-oxo-1-phenyl-ethyl]amino]methyl]thiophene-2-carboxylate]
[2]
  sub-maximal inhibition Dose: 10 nmol/kg
  inhibition at 16 h: >90%

## COc1ccc([C@H](Cc2c(Cl)c[n+]([O-])cc2Cl)OC(=O)c2ccc(CNC(CO)(C(=O)OCC3CCN(C)CC3)c3ccccc3)s2)cc1OC (stereo partly drawn) [Example 105, [(1S)-2-(3,5-dichloro-1-oxido-pyridin-1-ium-4-yl)-1-(3,4-dimethoxyphenyl)ethyl] 5-[[[1-(hydroxymethyl)-2-[(1-methyl-4-piperidyl)methoxy]-2-oxo-1-phenyl-ethyl]amino]methyl]thiophene-2-carboxylate]
[2]
  sub-maximal inhibition Dose: 30 nmol/kg
  inhibition at 16 h: 88%

## O=C(Nc1c(Cl)cncc1Cl)c1ccc(OC(F)F)c(OCC2CC2)c1 [roflumilast]
[3]; COPD patients, oral, over 4 weeks
  reduction of numbers of neutrophils in sputum: 36%
[3]; [5]
  improvement of FEV 1: approximately 50 mL
  reduction of exacerbation: about 15%
[4]
  lung inflammation and emphysema: inhibits lung inflammation and emphysema
